Laboratory results taken from patent US11014911B2, “CDK2 inhibitors” (Pfizer Inc., priority 2019, dated 2021).
pKi: −log10 of the molar value.

Target: CDK2/Cyclin E1 full length (Homo sapiens (Human), UniProt P24941)
Test: CDK2/Cyclin E1 full length mobility shift assay
Type: biochemical

SMILES	pKi
CC(C)NC(=O)O[C@@H]1CC[C@H](c2cc(NC(=O)Cc3ccc(C(F)(F)F)cn3)n[nH]2)C1 [Example 286, (1R,3S)-3-[3-({[5-(trifluoromethyl)pyridin-2-yl]acetyl}amino)-1H-pyrazol-5-yl]cyclopentyl propan-2-ylcarbamate]	8.38
COc1cc(C(=O)Nc2cc([C@H]3CC[C@@H](OC(=O)NC4(C)CCOC4)C3)[nH]n2)n(C)n1 (single isomer, unassigned) [Example 480]	8.70
CC(C)(C)NC(=O)O[C@@H]1CC[C@H](c2cc(NC(=O)Cc3cc(Cl)ccn3)n[nH]2)C1 [Example 115]	9.64
CC1(NC(=O)O[C@@H]2CC[C@H](c3cc(NC(=O)Cc4coc(C5CC5)n4)n[nH]3)C2)CC1 [Example 432, (1R,3S)-3-(3-{[(2-cyclopropyl-1,3-oxazol-4-yl)acetyl]amino}-1H-pyrazol-5-yl)cyclopentyl (1-methylcyclopropyl)carbamate]	8.90
CCNC(=O)O[C@@H]1CC[C@H](c2cc(NC(=O)Cc3ccc(F)cc3)n[nH]2)C1 [Example 228, (1R,3S)-3-(3-{[(4-fluorophenyl)acetyl]amino}-1H-pyrazol-5-yl)cyclopentyl ethylcarbamate]	8.74
COc1cnc(CC(=O)Nc2cc([C@H]3CC[C@@H](OC(=O)NC(C)C)C3)[nH]n2)cn1 [Example 277, (1R,3S)-3-(3-{[(5-methoxypyrazin-2-yl)acetyl]amino}-1H-pyrazol-5-yl)cyclopentyl propan-2-ylcarbamate]	9.01
CC1(NC(=O)O[C@@H]2CC[C@H](c3cc(NC(=O)Cc4cscn4)n[nH]3)C2)CC1 [Example 423, (1R,3S)-3-{3-[(1,3-thiazol-4-ylacetyl)amino]-1H-pyrazol-5-yl}cyclopentyl (1-methylcyclopropyl)carbamate]	9.22
C[C@@H](CF)NC(=O)O[C@@H]1CC[C@H](c2cc(NC(=O)Cc3cnn(C)c3)n[nH]2)C1 [Example 378, (1R,3S)-3-(3-{[(1-methyl-1H-pyrazol-4-yl)acetyl]amino}-1H-pyrazol-5-yl)cyclopentyl [(2S)-1-fluoropropan-2-yl]carbamate]	9.08
CC(C)(C)NC(=O)O[C@@H]1CC[C@H](c2cc(NC(=O)Cc3ncccc3F)n[nH]2)C1 [Example 301, (1R,3S)-3-(3-{[(3-fluoropyridin-2-yl)acetyl]amino}-1H-pyrazol-5-yl)cyclopentyl tert-butylcarbamate]	9.26
COc1ccc(CC(=O)Nc2cc([C@H]3CC[C@@H](OC(=O)N4C[C@H](OC)[C@H]4C)C3)[nH]n2)cn1 [Example 620, (1R,3S)-3-(3-{[(6-methoxypyridin-3-yl)acetyl]amino}-1H-pyrazol-5-yl)cyclopentyl (2R,3S)-3-methoxy-2-methylazetidine-1-carboxylate]	8.41
O=C(Cc1ccc(C(F)(F)F)nc1)Nc1cc([C@@H]2CC[C@H](OC(=O)NCC3CCOCC3)C2)[nH]n1 [Example 514, (1S,3R)-3-[3-({[6-(trifluoromethyl)pyridin-3-yl]acetyl}amino)-1H-pyrazol-5-yl]cyclopentyl (tetrahydro-2H-pyran-4-ylmethyl)carbamate]	8.56
COc1ccc(S(C)(=O)=O)c(CC(=O)Nc2cc([C@H]3CC[C@@H](OC(=O)NC(C)C)C3)[nH]n2)c1 [Example 288, (1R,3S)-3-[3-({[5-methoxy-2-(methylsulfonyl)phenyl]acetyl}amino)-1H-pyrazol-5-yl]cyclopentyl propan-2-ylcarbamate]	9.41
COCc1cc(C(=O)Nc2cc([C@H]3CC[C@@H](OC(=O)NC4(CC(F)(F)F)CC4)C3)[nH]n2)n(C)n1 [Example 457, (1R,3S)-3-[3-({[3-(methoxymethyl)-1-methyl-1H-pyrazol-5-yl]carbonyl}amino)-1H-pyrazol-5-yl]cyclopentyl [1-(2,2,2-trifluoroethyl)cyclopropyl] carbamate]	9.42
Cc1cc(CC(=O)Nc2cc([C@H]3CC[C@@H](OC(=O)N4CCCC[C@@H]4C)C3)[nH]n2)on1 [Example 640, (1R,3S)-3-(3-{[(3-methyl-1,2-oxazol-5-yl)acetyl]amino}-1H-pyrazol-5-yl)cyclopentyl (2S)-2-methylpiperidine-1-carboxylate]	9.32
CCCNC(=O)O[C@H]1CC[C@@H](c2cc(NC(=O)Cc3cn4c(C)c(C)sc4n3)n[nH]2)C1 [Example 200, (1S,3R)-3-(3-{[(2,3-dimethylimidazo[2,1-b][1,3]thiazol-6-yl)acetyl]amino}-1H-pyrazol-5-yl)cyclopentyl propylcarbamate]	8.54
COc1cc(CC(=O)Nc2cc([C@@H]3CC[C@H](OC(=O)NC[C@@H]4CCCO4)C3)[nH]n2)ccn1 [Example 497, (1S,3R)-3-(3-{[(2-methoxypyridin-4-yl)acetyl]amino}-1H-pyrazol-5-yl)cyclopentyl [(2S)-tetrahydrofuran-2-ylmethyl]carbamate]	8.36
Cc1cc(CC(=O)Nc2cc([C@H]3CC[C@@H](OC(=O)NC4(CC(F)(F)F)CC4)C3)[nH]n2)on1 [Example 453, (1R,3S)-3-(3-{[(3-methyl-1,2-oxazol-5-yl)acetyl]amino}-1H-pyrazol-5-yl)cyclopentyl [1-(2,2,2-trifluoroethyl)cyclopropyl]carbamate]	9.54

SMILES	pKi
Cc1coc(CC(=O)Nc2cc([C@H]3CC[C@@H](OC(=O)NC(C)(C)C)C3)[nH]n2)n1 [Example 296, (1R,3S)-3-(3-{[(4-methyl-1,3-oxazol-2-yl)acetyl]amino}-1H-pyrazol-5-yl)cyclopentyl tert-butylcarbamate]	9.52
O=C(Cc1cc(F)cc(F)c1)Nc1cc([C@@H]2CC[C@H](OC(=O)NCC3CCOCC3)C2)[nH]n1 [Example 513, (1S,3R)-3-(3-{[(3,5-difluorophenyl)acetyl]amino}-1H-pyrazol-5-yl)cyclopentyl (tetrahydro-2H-pyran-4-ylmethyl)carbamate]	8.50
Cc1cnc(CC(=O)Nc2cc([C@H]3CC[C@@H](OC(=O)NC(C)C)C3)[nH]n2)o1 [Example 271, (1R,3S)-3-(3-{[(5-methyl-1,3-oxazol-2-yl)acetyl]amino}-1H-pyrazol-5-yl)cyclopentyl propan-2-ylcarbamate]	8.80
Cc1nc(CC(=O)Nc2cc([C@H]3CC[C@@H](OC(=O)NC4(C)CC4)C3)[nH]n2)ccc1Cl [Example 442, (1R,3S)-3-(3-{[(5-chloro-6-methylpyridin-2-yl)acetyl]amino}-1H-pyrazol-5-yl)cyclopentyl (1-methylcyclopropyl)carbamate]	9.43
CC[C@H](C)NC(=O)O[C@@H]1CC[C@H](c2cc(NC(=O)Cc3cnn(C)c3C(F)(F)F)n[nH]2)C1 [Example 365, (1R,3S)-3-[3-({[1-methyl-5-(trifluoromethyl)-1H-pyrazol-4-yl]acetyl}amino)-1H-pyrazol-5-yl]cyclopentyl (2S)-butan-2-ylcarbamate]	8.68
Cc1cnc(CC(=O)Nc2cc([C@H]3CC[C@@H](OC(=O)NC(C)C)C3)[nH]n2)s1 [Example 273, (1R,3S)-3-(3-{[(5-methyl-1,3-thiazol-2-yl)acetyl]amino}-1H-pyrazol-5-yl)cyclopentyl propan-2-ylcarbamate]	8.51
Cc1cnc(CC(=O)Nc2cc([C@H]3CC[C@@H](OC(=O)NCCC(F)(F)F)C3)[nH]n2)s1 [Example 221, (1R,3S)-3-(3-{[(5-methyl-1,3-thiazol-2-yl)acetyl]amino}-1H-pyrazol-5-yl)cyclopentyl (3,3,3-trifluoropropyl)carbamate]	8.76
COC[C@H](C)NC(=O)O[C@@H]1CC[C@H](c2cc(NC(=O)Cc3cnc(OC)cn3)n[nH]2)C1 [Example 520, (1R,3S)-3-(3-{[(5-methoxypyrazin-2-yl)acetyl]amino}-1H-pyrazol-5-yl)cyclopentyl [(2S)-1-methoxypropan-2-yl]carbamate]	8.54
O=C(Cc1ccc(C(F)(F)F)nc1)Nc1cc([C@@H]2CC[C@H](OC(=O)NC[C@H]3C[C@H](O)C3)C2)[nH]n1 [Example 577, (1S,3R)-3-[3-({[6-(trifluoromethyl)pyridin-3-yl]acetyl}amino)-1H-pyrazol-5-yl]cyclopentyl[(trans-3-hydroxycyclobutyl)methyl]-carbamate]	8.47
Cc1cnc(CC(=O)Nc2cc([C@H]3CC[C@@H](OC(=O)NC(C)CC(F)F)C3)[nH]n2)o1 (single isomer, unassigned) [Example 96]	8.69
CC1(NC(=O)O[C@@H]2CC[C@H](c3cc(NC(=O)Cc4ccc(F)cn4)n[nH]3)C2)CC1 [Example 430, (1R,3S)-3-(3-{[(5-fluoropyridin-2-yl)acetyl]amino}-1H-pyrazol-5-yl)cyclopentyl (1-methylcyclopropyl)carbamate]	8.94
Cc1csc(CC(=O)Nc2cc([C@H]3CC[C@@H](OC(=O)NC(C)C)C3)[nH]n2)n1 [Example 274, (1R,3S)-3-(3-{[(4-methyl-1,3-thiazol-2-yl)acetyl]amino}-1H-pyrazol-5-yl)cyclopentyl propan-2-ylcarbamate]	8.58
Cc1cc(CC(=O)Nc2cc([C@@H]3CC[C@H](OC(=O)NC(C)C)C3)[nH]n2)no1 [Example 268, (1S,3R)-3-(3-{[(5-methyl-1,2-oxazol-3-yl)acetyl]amino}-1H-pyrazol-5-yl)cyclopentyl propan-2-ylcarbamate]	9.01
COC[C@H](C)NC(=O)O[C@@H]1CC[C@H](c2cc(NC(=O)Cc3ccc(OC)nc3)n[nH]2)C1 [Example 519, (1R,3S)-3-(3-{[(6-methoxypyridin-3-yl)acetyl]amino}-1H-pyrazol-5-yl)cyclopentyl [(2S)-1-methoxypropan-2-yl]carbamate]	9.25
Cc1cnc(CC(=O)Nc2cc([C@H]3CC[C@@H](OC(=O)N[C@@H](C)CF)C3)[nH]n2)o1 [Example 379, (1R,3S)-3-(3-{[(5-methyl-1,3-oxazol-2-yl)acetyl]amino}-1H-pyrazol-5-yl)cyclopentyl [(2S)-1-fluoropropan-2-yl]carbamate]	8.52
COc1cc(CC(=O)Nc2cc([C@H]3CC[C@@H](OC(=O)NC(C)CC(F)F)C3)[nH]n2)ccn1 (single isomer, unassigned) [Example 99]	10.05
Cc1c(CC(=O)Nc2cc([C@H]3CC[C@@H](OC(=O)NC(C)CC(F)(F)F)C3)[nH]n2)cnn1C (single isomer, unassigned) [Example 400]	8.89
